# Entries after “also recorded” stand apart in the source; their conditions may differ. Like-named read-outs stand apart in the source and are kept apart here.
# Test: Phase 1b MAD plasma pharmacokinetics, non-compartmental analysis
# Format: in vivo, human
# Source text: Methods: All study procedures were approved by the IRB, and informed consent was obtained. Three cohorts of volunteers 45-80 years of age with well-controlled comorbidities (NOAD) and one cohort of AD patients diagnosed with cognitive impairment consistent with prodromal AD per International Working Group criteria or mild AD per National Institute on Aging—Alzheimer's Association criteria (n=6 active, 2 placebo per cohort) were enrolled. Participants were admitted to the study site for the duration of the dosing and returned 7-12 days after the last dose for a safety visit. Participants received NTRX-07 (10, 30, or 90 mg) or a placebo in a double-blinded randomization orally once daily for seven days. Subjects were assessed for changes in vital signs, including maneuvers to induce lightheadedness, electrocardiograms, 24-hour electroencephalograms (EEG), and safety laboratory studies. The second cohort returned and received a single repeat dose after a standard high-fat meal. The AD cohort also underwent cognitive testing and had blood samples for biomarkers drawn. Subjects had PK sampling done after the first and final dose of the study drug. An independent safety review committee conducted a blinded safety review of adverse events and plasma levels between each cohort.
# All subjects had PK sampling done after the first and final dose of the study drug.
# (§1) Raw bioanalytical data were received from Nuvisan following analysis of plasma samples from each of four cohorts. PK parameters were calculated by noncompartmental analysis using standard equations. Specifically, area under the plasma concentration versus time curve (AUC) was calculated using the trapezoid rule. Maximal plasma concentration (Cmax) and time of maximal plasma concentration (Tmax) were taken directly from the data. Clearance divided by bioavailability (Cl/F) was calculated as the dose divided by the AUC. Apparent volume of distribution over bioavailability (Vd/F) was calculated as dose divided by Cmax.
# With oral administration of the dose every 24 hours for 7 days, blood samples were taken over a 24-hour interval on Days 1 and 7 and before and after dosing on Day 3.
# as §1, with “on Oct. 27, 2022. […]” for “following analysis of plasma samples from each of four cohorts. PK parameters were calculated by noncompartmental analysis using standard equations.”
# as §1, with “on Nov. 24, 2022. […]” for “following analysis of plasma samples from each of four cohorts. PK parameters were calculated by noncompartmental analysis using standard equations.”
# as §1, with “on Dec. 19, 2022. […]” for “following analysis of plasma samples from each of four cohorts. PK parameters were calculated by noncompartmental analysis using standard equations.”
# Raw bioanalytical data were received from Nuvisan on Jun. 30, 2023. […] Specifically, area under the plasma concentration versus time curve (AUC) was calculated using the trapezoid rule. Maximal plasma concentration (Cmax) and time of maximal plasma concentration (Tmax) were taken directly from the data. […]
smiles,measurement,setting,value
"CC1(Cc2ccccc2)COc2cc(C(=O)N3CCCCC3)ccc21 (stereo not drawn) [NTRX-07, 3-benzyl-3-methyl-2,3-dihydrobenzofuran-6-carboxylic acid-piperidine amide]",Cmax,"human, plasma, po, 90 mg, Cohort D AD patients, 90 mg QD oral, Day 7, mean ± SD, read-out: Average of Cmax",240 ± 38 ng/mL
same,Tmax,"human, plasma, po, 90 mg, Cohort D AD patients, 90 mg QD oral, Day 7, mean ± SD, read-out: Average of Tmax",1.1 ± 0.5 h
same,Vd/F,"human, plasma, po, 90 mg, Cohort D AD patients, 90 mg QD oral, Day 7, mean ± SD, read-out: Average of Vd/F",384 ± 69 L
same,AUC over 24 h (AUC0-24),"human, plasma, po, 90 mg, Table 14: Cohort C, 90 mg QD oral, Day 1, mean ± S.D.",1270 ± 509 ng·h/mL
same,Cmax,"human, plasma, po, 90 mg, Table 14: Cohort C, 90 mg QD oral, Day 1, mean ± S.D., read-out: Cmax",400 ± 202 ng/mL
same,Tmax,"human, plasma, po, 90 mg, Table 14: Cohort C, 90 mg QD oral, Day 1, mean ± S.D., read-out: Tmax",2.3 ± 2.2 h
same,Vd/F,"human, plasma, po, 90 mg, Table 14: Cohort C, 90 mg QD oral, Day 1, mean ± S.D., read-out: Vd/F",337 ± 316 L
same,AUC over 24 h (AUC0-24),"human, plasma, po, 90 mg, Table 15: Cohort C, 90 mg QD oral, Day 7, mean ± S.D.",741 ± 357 ng·h/mL
same,Cmax,"human, plasma, po, 90 mg, Table 15: Cohort C, 90 mg QD oral, Day 7, mean ± S.D., read-out: Cmax",189 ± 95 ng/mL
same,Tmax,"human, plasma, po, 90 mg, Table 15: Cohort C, 90 mg QD oral, Day 7, mean ± S.D., read-out: Tmax",1.3 ± 1 h
same,Vd/F,"human, plasma, po, 90 mg, Table 15: Cohort C, 90 mg QD oral, Day 7, mean ± S.D., read-out: Vd/F",568 ± 231 L
same,AUC(0-t),"human, plasma, po, 90 mg, Table 16: Cohort D (AD), 90 mg QD oral, Day 1, mean ± S.D., read-out: AUClast",1560 ± 605 ng·h/mL
same,Cmax,"human, plasma, po, 90 mg, Table 16: Cohort D (AD), 90 mg QD oral, Day 1, mean ± S.D., read-out: Cmax",478 ± 154 ng/mL
same,Tmax,"human, plasma, po, 90 mg, Table 16: Cohort D (AD), 90 mg QD oral, Day 1, mean ± S.D., read-out: Tmax",1.1 ± 0.6 h
same,Vd/F,"human, plasma, po, 90 mg, Table 16: Cohort D (AD), 90 mg QD oral, Day 1, mean ± S.D., read-out: Vd/F",211 ± 90 L
same,AUC over 24 h (AUC0-24),"human, plasma, po, 90 mg, Table 17: Cohort D (AD), 90 mg QD oral, Day 7, individual subjects",623 ng·h/mL
same,Cmax,"human, plasma, po, 90 mg, Table 17: Cohort D (AD), 90 mg QD oral, Day 7, individual subjects, read-out: Cmax",286 ng/mL
same,Vd/F,"human, plasma, po, 90 mg, Table 17: Cohort D (AD), 90 mg QD oral, Day 7, individual subjects, read-out: Vd/F",315 L
same,AUC over 24 h (AUC0-24),"human, plasma, po, 90 mg, Table 17: Cohort D (AD), 90 mg QD oral, Day 7, mean ± S.D.",806 ± 196 ng·h/mL
same,Cmax,"human, plasma, po, 90 mg, Table 17: Cohort D (AD), 90 mg QD oral, Day 7, mean ± S.D., read-out: Cmax",240 ± 38 ng/mL
same,Tmax,"human, plasma, po, 90 mg, Table 17: Cohort D (AD), 90 mg QD oral, Day 7, mean ± S.D., read-out: Tmax",1.1 ± 0.5 h
same,Vd/F,"human, plasma, po, 90 mg, Table 17: Cohort D (AD), 90 mg QD oral, Day 7, mean ± S.D., read-out: Vd/F",384 ± 69 L
same,AUC over 24 h (AUC0-24),"human, plasma, po, 120 mg, Table 24 (interim): Cohort B, 120 mg SDD (30 mg NTRX-07) QD oral, Day 1, mean ± S.D.",323 ± 213 ng·h/mL
same,Cmax,"human, plasma, po, 120 mg, Table 24 (interim): Cohort B, 120 mg SDD (30 mg NTRX-07) QD oral, Day 1, mean ± S.D., read-out: Cmax",109 ± 57.8 ng/mL
same,Tmax,"human, plasma, po, 120 mg, Table 24 (interim): Cohort B, 120 mg SDD (30 mg NTRX-07) QD oral, Day 1, mean ± S.D., read-out: Tmax",0.9 ± 0.6 h
same,Vd/F,"human, plasma, po, 120 mg, Table 24 (interim): Cohort B, 120 mg SDD (30 mg NTRX-07) QD oral, Day 1, mean ± S.D., read-out: Vd/F",1340 ± 750 L
same,Tmax,"human, plasma, po, 120 mg, Table 25 (interim): Cohort B, 120 mg SDD (30 mg NTRX-07) QD oral, Day 7, individual subjects, read-out: Tmax",0.5 h
same,AUC over 24 h (AUC0-24),"human, plasma, po, 120 mg, Table 25 (interim): Cohort B, 120 mg SDD (30 mg NTRX-07) QD oral, Day 7, mean ± S.D.",214 ± 191 ng·h/mL
same,Cmax,"human, plasma, po, 120 mg, Table 25 (interim): Cohort B, 120 mg SDD (30 mg NTRX-07) QD oral, Day 7, mean ± S.D., read-out: Cmax",120 ± 79.2 ng/mL
same,Tmax,"human, plasma, po, 120 mg, Table 25 (interim): Cohort B, 120 mg SDD (30 mg NTRX-07) QD oral, Day 7, mean ± S.D., read-out: Tmax",0.5 h
same,Vd/F,"human, plasma, po, 120 mg, Table 25 (interim): Cohort B, 120 mg SDD (30 mg NTRX-07) QD oral, Day 7, mean ± S.D., read-out: Vd/F",1240 ± 936 L
same,AUC over 24 h (AUC0-24),"human, plasma, po, 360 mg SDD, Table 29 (interim): Cohort C, 360 mg SDD (90 mg NTRX-07) QD oral, Day 1, mean ± S.D.",1290 ± 541 ng·h/mL
same,Cmax,"human, plasma, po, 360 mg SDD, Table 29 (interim): Cohort C, 360 mg SDD (90 mg NTRX-07) QD oral, Day 1, mean ± S.D., read-out: Cmax",439 ± 236 ng/mL
same,Tmax,"human, plasma, po, 360 mg SDD, Table 29 (interim): Cohort C, 360 mg SDD (90 mg NTRX-07) QD oral, Day 1, mean ± S.D., read-out: Tmax",2.3 ± 2.8 h
same,Vd/F,"human, plasma, po, 360 mg SDD, Table 29 (interim): Cohort C, 360 mg SDD (90 mg NTRX-07) QD oral, Day 1, mean ± S.D., read-out: Vd/F",1300 ± 1290 L
same,AUC over 24 h (AUC0-24),"human, plasma, po, 360 mg SDD, Table 30 (interim): Cohort C, 360 mg SDD (90 mg NTRX-07) QD oral, Day 7, mean ± S.D.",747 ± 349 ng·h/mL
same,Cmax,"human, plasma, po, 360 mg SDD, Table 30 (interim): Cohort C, 360 mg SDD (90 mg NTRX-07) QD oral, Day 7, mean ± S.D., read-out: Cmax",189 ± 95 ng/mL
same,Tmax,"human, plasma, po, 360 mg SDD, Table 30 (interim): Cohort C, 360 mg SDD (90 mg NTRX-07) QD oral, Day 7, mean ± S.D., read-out: Tmax",1.3 ± 1 h
same,Vd/F,"human, plasma, po, 360 mg SDD, Table 30 (interim): Cohort C, 360 mg SDD (90 mg NTRX-07) QD oral, Day 7, mean ± S.D., read-out: Vd/F",2270 ± 923 L
same,AUC over 24 h (AUC0-24),"human, plasma, po, 360 mg SDD, Table 34 (interim): Cohort D (AD), 360 mg SDD (90 mg NTRX-07) QD oral, Day 1, mean ± S.D.",1560 ± 329 ng·h/mL
same,Cmax,"human, plasma, po, 360 mg SDD, Table 34 (interim): Cohort D (AD), 360 mg SDD (90 mg NTRX-07) QD oral, Day 1, mean ± S.D., read-out: Cmax",478 ± 154 ng/mL
same,Tmax,"human, plasma, po, 360 mg SDD, Table 34 (interim): Cohort D (AD), 360 mg SDD (90 mg NTRX-07) QD oral, Day 1, mean ± S.D., read-out: Tmax",1.1 ± 0.6 h
same,Vd/F,"human, plasma, po, 360 mg SDD, Table 34 (interim): Cohort D (AD), 360 mg SDD (90 mg NTRX-07) QD oral, Day 1, mean ± S.D., read-out: Vd/F",845 ± 360 L
same,AUC over 24 h (AUC0-24),"human, plasma, po, 360 mg SDD, Table 35 (interim): Cohort D (AD), 360 mg SDD (90 mg NTRX-07) QD oral, Day 7, individual subjects",1010 ng·h/mL
same,Cmax,"human, plasma, po, 360 mg SDD, Table 35 (interim): Cohort D (AD), 360 mg SDD (90 mg NTRX-07) QD oral, Day 7, individual subjects, read-out: Cmax",286 ng/mL
same,Vd/F,"human, plasma, po, 360 mg SDD, Table 35 (interim): Cohort D (AD), 360 mg SDD (90 mg NTRX-07) QD oral, Day 7, individual subjects, read-out: Vd/F",1260 L
same,AUC over 24 h (AUC0-24),"human, plasma, po, 360 mg SDD, Table 35 (interim): Cohort D (AD), 360 mg SDD (90 mg NTRX-07) QD oral, Day 7, mean ± S.D.",1430 ± 329 ng·h/mL
same,Cmax,"human, plasma, po, 360 mg SDD, Table 35 (interim): Cohort D (AD), 360 mg SDD (90 mg NTRX-07) QD oral, Day 7, mean ± S.D., read-out: Cmax",240 ± 38 ng/mL
same,Tmax,"human, plasma, po, 360 mg SDD, Table 35 (interim): Cohort D (AD), 360 mg SDD (90 mg NTRX-07) QD oral, Day 7, mean ± S.D., read-out: Tmax",1.1 ± 0.5 h
same,Vd/F,"human, plasma, po, 360 mg SDD, Table 35 (interim): Cohort D (AD), 360 mg SDD (90 mg NTRX-07) QD oral, Day 7, mean ± S.D., read-out: Vd/F",1540 ± 278 L
same,Plasma levels / exposure Day 7 vs Day 1,"repeat QD dosing, 90 mg cohorts",A decrease of levels at Day 7 was observed; also recorded: exposure is decreasing rather than increasing over time

# — patent US20250082624A1, “METHODS OF TREATING COGNITIVE IMPAIRMENT” (NeuroTherapia, Inc., priority 2023, published 2025)
